Ends that are not written are not given here. Peptide text beside a SMILES is read from it.
What was measured:
[1] = test system: Staphylococcus aureus; assay: Determination of antimicrobial activity (MIC, bacterial growth in LB broth); format: cell-based; conditions: minimum inhibitory concentration (MIC) per method, 37°C, 20 h, read-out: Antimicrobial activity IC50 [µM] S.a.
Procedure: (§1) Antimicrobial activity was determined as a quantitative minimum inhibitory concentration (MIC) by observing bacterial growth in the presence of different concentrations of tested peptides. Mid-exponential phase bacteria were added to the solutions of the tested antimicrobial peptide at different concentrations (0.5 to 100 µM) in LB broth in multi-well plates. The plates were incubated at 37°C for 20 h while being continuously shaken in a Bioscreen C instrument (Finland). The absorbance was measured at 540 nm every 15 min and each peptide was tested at least 3 times in duplicate. 1.2.10^3 - 7.5.10^3 CFU of bacteria was routinely used in the experiments. Tetracycline in a concentration range of 0.1 - 50 µM was tested as a standard.

[2] = test system: Pseudomonnas aeruginosa; assay: as above; format: cell-based; conditions: minimum inhibitory concentration (MIC) per method, 37°C, 20 h, read-out: Antimicrobial activity IC50 [µM] P.a.
Procedure: as §1

[3] = test system: Escherichia coli; assay: as above; format: cell-based; conditions: minimum inhibitory concentration (MIC) per method, 37°C, 20 h, read-out: Antimicrobial activity IC50 [µM] E. c.
Procedure: as §1

[4] = test system: Bacilus subtilis; assay: as above; format: cell-based; conditions: minimum inhibitory concentration (MIC) per method, 37°C, 20 h, read-out: Antimicrobial activity IC50 [µM] B.s.
Procedure: as §1

[5] = test system: rat red blood cells; assay: Determination of hemolytic activity; format: cell-based; conditions: rat red blood cells (5%), 1 h at 37°C, peptides 1-200 µM
Procedure: The peptides in the concentration (1-200 µM) were incubated with rat red blood cells (5%) for 1 h at 37°C in a physiological solution at a final volume of 0.2 ml. The samples were then centrifuged for 5 min at 250 g, and the absorbance of the supernatant was determined at 540 nm. Supernatants of red blood cells suspended in physiological solution and in 0.2% TRITON X100 in physiological solution served as controls for zero hemolysis (blank) and 100% hemolysis, respectively. Table 3. Antimicrobial and hemolytic activity of melectin (I) and its synthetic analogs of formulas II/1 to II/18

[6] = test system: CCRF-CEM T lymphoblastoid; assay: Cytostatic effect on cancer cells (e.g. MTT test); format: cell-based, human; conditions: 24-72 h incubation, 50% decrease in cell viability
Procedure: (§2) Tumor cells in suspension or adherent cells were incubated under standard conditions in appropriate culture media for 24-72 h with the peptides in 2-40 micromolar concentration. After this time, the number of living cells was determined using routine tests, e.g. MTT test. The IC50 was determined as concentration of peptides, which caused 50% decrease in cell viability in comparison to controls (no peptide present). In preliminary tests mouse lymphocytic leukemia L1210 (CCL 219), CCRF-CEM T lymphoblastoid (human acute lymphoblastic leukemia, CCL 119), human promyelocytic leukemia HL-60 (CCL 240), human cervix carcinoma HeLa S3, rat pheochromocytoma PC12, human colon adenocarcinoma SW480 (CCL-228), and normal rat epithelial cells (IEC-6, CRL-1592) from ATCC (Manassas, VA, USA), were used. […] Table 4. Cytostatic effect of selected peptides on cancer cells

[7] = test system: mouse lymphocytic leukemia L1210; assay: Cytostatic effect on cancer cells (e.g. MTT test); format: cell-based; conditions: 24-72 h incubation, 50% decrease in cell viability
Procedure: as §2

[8] = test system: human colon adenocarcinoma SW480; assay: Cytostatic effect on cancer cells (e.g. MTT test); format: cell-based; conditions: 24-72 h incubation, 50% decrease in cell viability
Procedure: as §2

[9] = test system: human promyelocytic leukemia HL-60; assay: Cytostatic effect on cancer cells (e.g. MTT test); format: cell-based; conditions: 24-72 h incubation, 50% decrease in cell viability
Procedure: as §2

[10] = test system: human cervix carcinoma HeLa S3; assay: Cytostatic effect on cancer cells (e.g. MTT test); format: cell-based; conditions: 24-72 h incubation, 50% decrease in cell viability; read-out: IC50 [µM] HeLaS3
Procedure: as §2

Compound | IC50 [1] | IC50 [2] | IC50 [3] | IC50 [4] | Hemolytic activity [5] | IC50 [6] | IC50 [7] | IC50 [8] | IC50 [9] | IC50 [10]
CC[C@H](C)[C@H](NC(=O)[C@H](CO)NC(=O)[C@H](CC(C)C)NC(=O)[C@H](Cc1ccccc1)NC(=O)CN)C(=O)N[C@@H](CC(C)C)C(=O)N[C@@H](CCCCN)C(=O)N[C@@H](CCCCN)C(=O)N[C@H](C(=O)N[C@@H](CC(C)C)C(=O)N1CCC[C@@H]1C(=O)N[C@@H](CCCCN)C(=O)N[C@H](C(=O)N[C@@H](CCSC)C(=O)N[C@@H](C)C(=O)N[C@@H](Cc1c[nH]cn1)C(=O)N[C@@H](CCSC)C(=O)N[C@@H](CCCCN)C(N)=O)C(C)C)C(C)C [II/15, H-Gly-Phe-Leu-Ser-Ile-Leu-Lys-Lys-Val-Leu-Pro-Lys-Val-Met-Ala-His-Met-Lys-NH2] | > 100 µM | 100 µM | 4.2 µM | 1.7 µM | »200 µM |  |  |  |  | 
CC[C@H](C)[C@H](NC(=O)[C@H](CO)NC(=O)[C@H](CC(C)C)NC(=O)[C@H](Cc1cccc2ccccc12)NC(=O)CN)C(=O)N[C@@H](CC(C)C)C(=O)N[C@@H](CCCCN)C(=O)N[C@@H](CCCCN)C(=O)N[C@H](C(=O)N[C@@H](CC(C)C)C(=O)N1CCC[C@H]1C(=O)N[C@@H](CCCCN)C(=O)N[C@H](C(=O)N[C@@H](CCSC)C(=O)N[C@@H](C)C(=O)N[C@@H](Cc1c[nH]cn1)C(=O)N[C@@H](CCSC)C(=O)N[C@@H](CCCCN)C(N)=O)C(C)C)C(C)C [II/16, H-Gly-1Nal-Leu-Ser-Ile-Leu-Lys-Lys- V al-Leu-Pro-Lys- V al-Met-Ala-His-Met-Lys-NH2] (HELM PEPTIDE1{G.[O=C([C@H](Cc1cccc2ccccc12)N[*:1])[*:2]].L.S.I.L.K.K.V.L.P.K.V.M.A.H.M.K.[am]}$$$$V2.0) | 2.5 µM | 17.3 µM | 0.4 µM | 0.4 µM | 25 µM |  |  |  |  | 
CCCC[C@H](NC(=O)[C@H](Cc1c[nH]cn1)NC(=O)[C@H](C)NC(=O)[C@H](CCCC)NC(=O)[C@@H](NC(=O)[C@H](CCCCN)NC(=O)[C@@H]1CCCN1C(=O)[C@H](CC(C)C)NC(=O)[C@@H](NC(=O)[C@H](CCCCN)NC(=O)[C@H](CCCCN)NC(=O)[C@H](CC(C)C)NC(=O)[C@@H](NC(=O)[C@H](CO)NC(=O)[C@H](CC(C)C)NC(=O)[C@H](Cc1ccccc1)NC(=O)CN)[C@@H](C)CC)C(C)C)C(C)C)C(=O)N[C@@H](CCCCN)C(N)=O [II/18, H-Gly-Phe-Leu-Ser-Ile-Leu-Lys-Lys-Val-Leu-Pro-Lys-Val-Nle-Ala-His-Nle-Lys-NH2] (HELM PEPTIDE1{G.F.L.S.I.L.K.K.V.L.P.K.V.[Nle].A.H.[Nle].K.[am]}$$$$V2.0) | 2.5 µM | 17.3 µM | 0.75 µM | 0.2 µM |  |  |  |  |  | 
CCCC[C@H](NC(=O)[C@H](Cc1cnc[nH]1)NC(=O)[C@H](C)NC(=O)[C@H](CCCC)NC(=O)[C@@H](NC(=O)[C@H](CCCCN)NC(=O)[C@@H]1CCCN1C(=O)[C@H](CC(C)C)NC(=O)[C@@H](NC(=O)[C@H](CCCCN)NC(=O)[C@H](CCCCN)NC(=O)[C@H](CC(C)C)NC(=O)[C@@H](NC(=O)[C@H](CO)NC(=O)[C@H](CC(C)C)NC(=O)[C@H](Cc1ccccc1)NC(=O)CN)[C@@H](C)CC)C(C)C)C(C)C)C(=O)N[C@@H](CCCCN)C(N)=O [II/18, H-Gly-Phe-Leu-Ser-Ile-Leu-Lys-Lys-Val-Leu-Pro-Lys-Val-Nle-Ala-His-Nle-Lys-NH2] (HELM PEPTIDE1{G.F.L.S.I.L.K.K.V.L.P.K.V.[Nle].A.H.[Nle].K.[am]}$$$$V2.0) |  |  |  |  | 50 µM |  |  |  |  | 
GFLSILKKVLGKVMAHMK-NH2 [II/3, H-Gly-Phe-Leu-Ser-lle-Leu-Lys-Lys-Val-Leu-Gly-Lys-Val-Met-Ala-His-Met-Lys-NH2] | 4.3 µM | 14.4 µM | 1.8 µM | 1.3 µM | 41.4 µM |  |  |  |  | 
GFLSILKKVLKVMAHMK-NH2 [II/8, H-Gly-Phe-Leu-Ser-Ile-Leu-Lys-Lys-Val-Leu-... -Lys-Val-Met-Ala-His-Met-Lys-NH2] | 5 µM | 27.5 µM | 1.8 µM | 0.9 µM | 22.9 µM |  |  |  |  | 
H-FLSILKKVLPKVMAHMK-NH2 [II/9, H-Phe-Leu-Ser-Ile-Leu-Lys-Lys-Val-Leu-Pro-Lys-Val-Met-Ala-His-Met-Lys-NH2] | 38.8 µM | 62.1 µM | 9.08 µM | 1.2 µM | >200 µM |  |  |  |  | 
H-GFLSILKKVGPKVMAHMK-NH2 [II/14, H-Gly-Phe-Leu-Ser-Ile-Leu-Lys-Lys-Val-Gly-Pro-Lys-Val-Met-Ala-His-Met-Lys-NH2] | 80 µM | 80 µM | 22.5 µM | 1.4 µM | »200 µM |  |  |  |  | 
H-GFLSILKKVL-NH2 [II/13, H-Gly-Phe-Leu-Ser-Ile-Leu-Lys-Lys-Val-Leu-NH2] | 10.9 µM | 58.7 µM | 9.1 µM | 2.9 µM | >100 µM |  |  |  |  | 
H-GFLSILKKVLAKVMAHMK-NH2 [II/2, H-Gly-Phe-Leu-Ser-Ile-Leu-Lys-Lys-Val-Leu-Ala-Lys-Val-Met-Ala-His-Met-Lys-NH2] | 4.7 µM | 18.3 µM | 1.6 µM | 1.3 µM | 29.7 µM |  |  |  |  | 
H-GFLSILKKVLKKVMAHMK-NH2 [II/1, H-Gly-Phe-Leu-Ser-Ile-Leu-Lys-Lys-Val-Leu-Lys-Lys-Val-Met-Ala-His-Met-Lys-NH2] | 13.3 µM | 25.3 µM | 1.8 µM | 1.4 µM | 27.3 µM |  |  |  |  | 
H-GFLSILKKVLP-NH2 [II/12, H-Gly-Phe-Leu-Ser-Ile-Leu-Lys-Lys-Val-Leu-Pro-NH2] | > 100 µM | > 100 µM | 78 µM | 13 µM | »200 µM |  |  |  |  | 
H-GFLSILKKVLPKVLAHLK-NH2 [II/5, H-Gly-Phe-Leu-Ser-Ile-Leu-Lys-Lys-Val-Leu-Pro-Lys-Val-Leu-Ala-His-Leu-Lys-NH2] | 5 µM | 20 µM | 1.2 µM | 0.8 µM | 43.7 µM |  |  |  |  | 
H-GFLSILKKVLPKVMAKMK-NH2 [II/4, H-Gly-Phe-Leu-Ser-Ile-Leu-Lys-Lys-Val-Leu-Pro-Lys-Val-Met-Ala-Lys-Met-Lys-NH2] | 16.8 µM | 33.6 µM | 2.1 µM | 0.7 µM | >100 µM |  |  |  |  | 
H-GFLSILKKVLPKVMHAMK-NH2 [II/6, H-Gly-Phe-Leu-Ser-Ile-Leu-Lys-Lys-Val-Leu-Pro-Lys-Val-Met-His-Ala-Met-Lys-NH2] | 9.1 µM | 35.1 µM | 2.1 µM | 1.1 µM | 150 µM |  |  |  |  | 
H-GFLSILKKVLPKVMKAMK-NH2 [II/7, H-Gly-Phe-Leu-Ser-Ile-Leu-Lys-Lys-Val-Leu-Pro-Lys-Val-Met-Lys-Ala-Met-Lys-NH2] | 7.7 µM | 31.7 µM | 1.5 µM | 0.8 µM | 70 µM | 8.8 µM | 6.9 µM | 12.5 µM | 9.1 µM | 9.6 µM
H-GLSILKKVLKKVMAHMK-NH2 [II/17, H-Gly-...-Leu-Ser-Ile-Leu-Lys-Lys-Val-Leu-Lys-Lys-Val-Met-Ala-His-Met-Lys-NH2] |  |  |  |  | »200 µM |  |  |  |  | 
H-LSILKKVLPKVMAHMK-NH2 [II/10, H-Leu-Ser-Ile-Leu-Lys-Lys- Val-Leu-Pro-Lys-Val-Met-Ala-His-Met-Lys-NH2] | > 100 µM | > 100 µM | 76.2 µM | 7.9 µM | »200 µM |  |  |  |  | 
H-SILKKVLPKVMAHMK-NH2 [II/11, H-Ser-Ile-Leu-Lys-Lys-Val-Leu-Pro-Lys-Val-Met-Ala-His-Met-Lys-NH2] | > 100 µM | > 100 µM | > 100 µM | 21.8 µM | »200 µM |  |  |  |  | 

From patent EP2265631B1, “NOVEL ANTIMICROBIAL PEPTIDES AND THEIR APPLICATION” (Ustav Organicke Chemie a Biochemie Akademie Ved Ceske …, priority 2008, dated 2009)
